Results as given in patent US10226509B2, “Lymphangiogenesis inhibitors for cancer and for graft survival” (TUFTS UNIVERSITY, priority 2014, dated 2019).

System: LEC plasma membrane
Test: Immunocytochemistry / confocal microscopy of receptor clustering on LECs
Assay type: cell-based, human
Experimental: […] Cells were blocked with Image-iT® signal enhancer (30 min, 25° C., Invitrogen) and incubated with primary antibodies (rat anti-human PDPN, 1:300, BioLegend; mouse anti-human VEGFR-3, 9D9F9, 1:100, BioLegend; rabbit anti-Gal-8, H-80, 1:100, Santa Cruz Biotechnology) in 2% BSA/PBS at 4° C. overnight. The cells were then washed with 2% BSA/PBS three times and incubated with appropriate secondary antibodies (Alexa Fluor® 488 anti-mouse, 1:200, Invitrogen; Alexa Fluor® 568 anti-rabbit, 1:200, Invitrogen; Alexa Fluor 647® anti-rat, 1:300, Jackson ImmunoResearch) at 25° C. for 1 hr. Cells were washed with PBS, slides were mounted with ProLong Gold antifade reagent with DAPI (Invitrogen) and were examined with the Leica TCS SPE imaging system (Leica).
Since galectin-glycan lattices segregate the cell surface receptors into discrete domains to initiate cell signaling (Lajoie, P., et al. 2009. J Cell Biol 185:381-385), assays were performed to determine whether Gal-8 clusters PDPN and VEGFR-3 on LEC plasma membrane. LECs were treated with Gal-8 for 15 minutes, fixed, stained with anti-PDPN, VEGFR-3 and Gal-8 antibodies, and examined by confocal microscopy. In control cells, which were incubated with buffer only, both PDPN and VEGFR-3 were homogenously distributed all over the LEC and in cell borders; endogenous Gal-8 was mainly distributed in cytosol (FIG. 9A-FIG. 9D). […]

With “Gal-8: recombinant galectin-8, tandem-repeat type galectin with two different CRDs” the “distribution of PDPN and VEGFR-3 on LECs” value (Gal-8 for 15 minutes) was “caused dramatic redistribution and clustering of PDPN and VEGFR-3 on LEC plasma membrane” and the “distribution of PDPN and integrin β1 on LECs” value (galectin-8 for 15 minutes, no permeabilization) was “caused dramatic redistribution and clustering of PDPN and integrin β1 on LEC plasma membrane”.
